# In BindingDB's records for doi:10.1016/S0960-894X(02)01050-8 (The University of Texas At Houston, 2003):
# Square brackets hold non-standard residues; d marks the D form. Peptide text beside a SMILES is read from it. ξ: configuration not given here. Phe(4-tetrazol-5-yl) = N[C@@H](Cc1ccc(-c2nnn[nH]2)cc1)C(=O)O; Phe(4-COOH) = N[C@@H](Cc1ccc(C(=O)O)cc1)C(=O)O; pY = N[C@@H](Cc1ccc(OP(=O)(O)O)cc1)C(=O)O; Thr(3ξ) = CC(O)[C@H](N)C(=O)O
# Target: Signal transducer and activator of transcription 3 (Mus musculus, UniProt P42227)
# Test: Electrophoretic Mobility Shift Assay (EMSA)
# Conditions: pH 7.8; 22 °C
# Description: His10-Stat3 was expressed in Sf9 cells from a baculovirus encoding the recombinant protein. A nuclear extract of the Sf9 cells was incubated with 32P-labeled high affinity c-fos sis inducible element (hSIE) either alone or in the presence of inhibitor. After 20 min of incubation, samples were electrophoresed on polyacrylamide gels. The gels were dried, exposed to a phosphorimager screen and scanned. IC50 values were derived from plots of spot intensity versus phosphopeptide concentration. The affinity of peptides to the SH2 domain is measured by the intensity of the radioactivity of the Stat3-DNA complex band in the electrophoresis gel.
# Sequence of Signal transducer and activator of transcription 3 (P42227 whole entry): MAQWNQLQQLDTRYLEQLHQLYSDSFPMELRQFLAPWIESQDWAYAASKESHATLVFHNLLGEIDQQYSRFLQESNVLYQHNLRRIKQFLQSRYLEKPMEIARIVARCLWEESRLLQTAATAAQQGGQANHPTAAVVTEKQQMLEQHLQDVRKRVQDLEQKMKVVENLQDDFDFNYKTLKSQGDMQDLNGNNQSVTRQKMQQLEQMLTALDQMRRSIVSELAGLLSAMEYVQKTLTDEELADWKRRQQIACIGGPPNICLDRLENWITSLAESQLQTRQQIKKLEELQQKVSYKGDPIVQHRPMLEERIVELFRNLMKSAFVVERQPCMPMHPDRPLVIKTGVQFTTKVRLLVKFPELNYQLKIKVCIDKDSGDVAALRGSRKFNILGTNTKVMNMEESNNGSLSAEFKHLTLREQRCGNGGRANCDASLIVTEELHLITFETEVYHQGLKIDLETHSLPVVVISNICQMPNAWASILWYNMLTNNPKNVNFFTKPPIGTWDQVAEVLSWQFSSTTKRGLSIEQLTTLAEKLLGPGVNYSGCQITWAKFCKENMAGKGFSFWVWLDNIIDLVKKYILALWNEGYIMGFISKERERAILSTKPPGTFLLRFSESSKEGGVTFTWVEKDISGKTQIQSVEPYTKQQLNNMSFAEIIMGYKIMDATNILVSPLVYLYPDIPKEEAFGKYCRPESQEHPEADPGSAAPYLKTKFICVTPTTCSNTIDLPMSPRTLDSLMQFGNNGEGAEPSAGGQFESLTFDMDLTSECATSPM
row,SMILES,IC50
1,CC(=O)N[C@@H](Cc1ccc(OP(=O)(O)O)cc1)C(=O)N[C@@H](CC(C)C)C(=O)N1CCC[C@H]1C(=O)N[C@@H](CCC(N)=O)C(N)=O (Ac-[pY]LPQ-NH2),1 µM
2,"CC(=O)N[C@@H](Cc1ccc(OP(=O)(O)O)cc1)C(=O)N[C@@H](CC(C)C)C(=O)N[C@@H](C)C(=O)N[C@@H](CCC(N)=O)C(=O)N[C@H](C(=O)N[C@H](C(N)=O)C(C)C)C(C)O (stereo partly drawn) [4-[(2S)-2-{[(1S)-1-{[(1S)-1-{[(1S)-3-carbamoyl-1-{[(1S,2S)-1-{[(1S)-1-carbamoyl-2-methylpropyl]carbamoyl}-2-hydroxypropyl]carbamoyl}propyl]carbamoyl}ethyl]carbamoyl}-3-methylbutyl]carbamoyl}-2-acetamidoethyl]phenoxyphosphonic acid] (Ac-[pY]LAQ[Thr(3ξ)]V-NH2)",4 µM
3,"CC(=O)N[C@@H](Cc1ccc(OP(=O)(O)O)cc1)C(=O)N[C@@H](CC(C)C)C(=O)N[C@@H](CCCCN)C(=O)N[C@H](C(=O)N[C@@H](CCCCN)C(=O)N[C@@H](Cc1ccccc1)C(N)=O)C(C)O (stereo partly drawn) [4-[(2S)-2-{[(1S)-1-{[(1S)-5-amino-1-{[(1S,2R)-1-{[(1S)-5-amino-1-{[(1S)-1-carbamoyl-2-phenylethyl]carbamoyl}pentyl]carbamoyl}-2-hydroxypropyl]carbamoyl}pentyl]carbamoyl}-3-methylbutyl]carbamoyl}-2-acetamidoethyl]phenoxyphosphonic acid] (Ac-[pY]LK[Thr(3ξ)]KF-NH2)",20 µM
4,"CC(=O)N[C@@H](Cc1ccc(OP(=O)(O)O)cc1)C(=O)N[C@@H](CC(C)C)C(=O)N1CCC[C@H]1C(=O)N[C@@H](CC(N)=O)C(=O)N[C@H](C(=O)N[C@H](C(N)=O)C(C)C)C(C)O (stereo partly drawn) [4-[(2S)-2-{[(2S)-1-[(2S)-2-{[(1S)-2-carbamoyl-1-{[(1S,2S)-1-{[(1S)-1-carbamoyl-2-methylpropyl]carbamoyl}-2-hydroxypropyl]carbamoyl}ethyl]carbamoyl}pyrrolidin-1-yl]-4-methyl-1-oxopentan-2-yl]carbamoyl}-2-acetamidoethyl]phenoxyphosphonic acid] (Ac-[pY]LPN[Thr(3ξ)]V-NH2)",2 µM
5,"CC(=O)N[C@@H](Cc1ccc(OP(=O)(O)O)cc1)C(=O)N[C@@H](CC(C)C)C(=O)N1CCC[C@H]1C(=O)N[C@@H](CCC(N)=O)C(=O)N[C@H](C(N)=O)C(C)O (stereo partly drawn) [4-[(2S)-2-{[(2S)-1-[(2S)-2-{[(1S)-3-carbamoyl-1-{[(1S,2S)-1-carbamoyl-2-hydroxypropyl]carbamoyl}propyl]carbamoyl}pyrrolidin-1-yl]-4-methyl-1-oxopentan-2-yl]carbamoyl}-2-acetamidoethyl]phenoxyphosphonic acid] (Ac-[pY]LPQ[Thr(3ξ)]-NH2)",0.6 µM
6,"CC(=O)N[C@@H](Cc1ccc(C(=O)O)cc1)C(=O)N[C@@H](CC(C)C)C(=O)N1CCC[C@H]1C(=O)N[C@@H](CCC(N)=O)C(=O)N[C@H](C(=O)N[C@H](C(N)=O)C(C)C)C(C)O (stereo partly drawn) [4-[(2S)-2-{[(2S)-1-[(2S)-2-{[(1S)-3-carbamoyl-1-{[(1S,2S)-1-{[(1S)-1-carbamoyl-2-methylpropyl]carbamoyl}-2-hydroxypropyl]carbamoyl}propyl]carbamoyl}pyrrolidin-1-yl]-4-methyl-1-oxopentan-2-yl]carbamoyl}-2-acetamidoethyl]benzoic acid] (Ac-[Phe(4-COOH)]LPQ[Thr(3ξ)]V-NH2)",> 6 µM
7,"CC(=O)N[C@@H](Cc1ccc(OP(=O)(O)O)cc1)C(=O)N[C@@H](CC(C)C)C(=O)N1CCC[C@H]1C(=O)N[C@@H](CCC(N)=O)C(=O)N[C@H](C(=O)N[C@H](C(N)=O)C(C)C)C(C)O (stereo partly drawn) [4-[(2S)-2-{[(2S)-1-[(2S)-2-{[(1S)-3-carbamoyl-1-{[(1S,2S)-1-{[(1S)-1-carbamoyl-2-methylpropyl]carbamoyl}-2-hydroxypropyl]carbamoyl}propyl]carbamoyl}pyrrolidin-1-yl]-4-methyl-1-oxopentan-2-yl]carbamoyl}-2-acetamidoethyl]phenoxyphosphonic acid]",0.15 µM
8,"CC(=O)N[C@@H](Cc1ccc(OP(=O)(O)O)cc1)C(=O)N[C@@H](CC(C)C)C(=O)N1CCC[C@H]1C(=O)N[C@@H](CCC(N)=O)C(=O)N[C@H](C(=O)N[C@@H](C)C(N)=O)C(C)O (stereo partly drawn) [4-[(2S)-2-{[(2S)-1-[(2S)-2-{[(1S)-3-carbamoyl-1-{[(1S,2S)-1-{[(1S)-1-carbamoylethyl]carbamoyl}-2-hydroxypropyl]carbamoyl}propyl]carbamoyl}pyrrolidin-1-yl]-4-methyl-1-oxopentan-2-yl]carbamoyl}-2-acetamidoethyl]phenoxyphosphonic acid] (Ac-[pY]LPQ[Thr(3ξ)]A-NH2)",0.4 µM
9,"CC(=O)N[C@@H](Cc1ccc(-c2nnn[nH]2)cc1)C(=O)N[C@@H](CC(C)C)C(=O)N1CCC[C@H]1C(=O)N[C@@H](CCC(N)=O)C(=O)N[C@H](C(=O)N[C@H](C(N)=O)C(C)C)C(C)O (stereo partly drawn) [(2S)-N-[(1S,2S)-1-{[(1S)-1-carbamoyl-2-methylpropyl]carbamoyl}-2-hydroxypropyl]-2-{[(2S)-1-[(2S)-2-[(2S)-2-acetamido-3-[4-(2H-1,2,3,4-tetrazol-5-yl)phenyl]propanamido]-4-methylpentanoyl]pyrrolidin-2-yl]formamido}pentanediamide] (Ac-[Phe(4-tetrazol-5-yl)]LPQ[Thr(3ξ)]V-NH2)",> 6 µM
10,CC(=O)N[C@@H](Cc1ccc(OP(=O)(O)O)cc1)C(=O)N[C@@H](CC(C)C)C(=O)N[C@@H](CCCN=C(N)N)C(=O)N[C@@H](CS)C(=O)N[C@@H](CC(=O)O)C(=O)N[C@@H](CO)C(N)=O [(3S)-3-[(2R)-2-[(2S)-5-carbamimidamido-2-[(2S)-2-[(2S)-2-acetamido-3-[4-(phosphonooxy)phenyl]propanamido]-4-methylpentanamido]pentanamido]-3-sulfanylpropanamido]-3-{[(1S)-1-carbamoyl-2-hydroxyethyl]carbamoyl}propanoic acid] (Ac-[pY]LRCDS-NH2),80 µM
11,"CC(=O)N[C@@H](Cc1ccc(OP(=O)(O)O)cc1)C(=O)N[C@@H](CC(C)C)C(=O)N1CCC[C@H]1C(=O)N[C@@H](CCC(=O)O)C(=O)N[C@H](C(=O)N[C@H](C(N)=O)C(C)C)C(C)O (stereo partly drawn) [(4S)-4-{[(1S,2S)-1-{[(1S)-1-carbamoyl-2-methylpropyl]carbamoyl}-2-hydroxypropyl]carbamoyl}-4-{[(2S)-1-[(2S)-2-[(2S)-2-acetamido-3-[4-(phosphonooxy)phenyl]propanamido]-4-methylpentanoyl]pyrrolidin-2-yl]formamido}butanoic acid] (Ac-[pY]LPE[Thr(3ξ)]V-NH2)",> 6 µM
12,"CC(=O)N[C@@H](Cc1ccc(CP(=O)(O)O)cc1)C(=O)N[C@@H](CC(C)C)C(=O)N1CCC[C@H]1C(=O)N[C@@H](CCC(N)=O)C(=O)N[C@H](C(=O)N[C@H](C(N)=O)C(C)C)C(C)O (stereo partly drawn) [({4-[(2S)-2-{[(2S)-1-[(2S)-2-{[(1S)-3-carbamoyl-1-{[(1S,2S)-1-{[(1S)-1-carbamoyl-2-methylpropyl]carbamoyl}-2-hydroxypropyl]carbamoyl}propyl]carbamoyl}pyrrolidin-1-yl]-4-methyl-1-oxopentan-2-yl]carbamoyl}-2-acetamidoethyl]phenyl}methyl)phosphonic acid]",8 µM
13,CC(=O)N[C@@H](Cc1ccc(OP(=O)(O)O)cc1)C(=O)N[C@@H](CO)C(=O)N[C@H](C(=O)N[C@H](C(=O)N[C@H](C(=O)N[C@@H](Cc1cnc[nH]1)C(N)=O)C(C)C)C(C)C)C(C)O (some centres undefined) [Y(p)STVVH] (Ac-[pY]S[Thr(3ξ)]VVH-NH2),> 150 µM

# Further lines, results first:
row,IC50,SMILES
1,1.6 µM,CC(=O)N[C@@H](Cc1ccc(OP(=O)(O)O)cc1)C(=O)N[C@@H](C)C(=O)N1CCC[C@H]1C(=O)N[C@@H](CCC(N)=O)C(=O)N[C@H](C(=O)N[C@H](C(N)=O)C(C)C)C(C)O (some centres undefined) [Y(p)APQTV] (Ac-[pY]APQ[Thr(3ξ)]V-NH2)
2,30 µM,CCC(C)[C@H](NC(=O)[C@H](Cc1ccc(OP(=O)(O)O)cc1)NC(C)=O)C(=O)N[C@@H](CC(N)=O)C(=O)N[C@@H](CCC(N)=O)C(=O)N[C@@H](CO)C(=O)N[C@H](C(N)=O)C(C)C (some centres undefined) [Y(p)INQSV]
3,> 6 µM,CC(=O)N[C@@H](Cc1ccc(OP(=O)(O)O)cc1)C(=O)N[C@@H](CC(C)C)C(=O)N1CCC[C@H]1C(=O)N[C@@H](C)C(=O)N[C@H](C(=O)N[C@H](C(N)=O)C(C)C)C(C)O (some centres undefined) [Y(p)LPATV] (Ac-[pY]LPA[Thr(3ξ)]V-NH2)
4,> 6 µM,CC(=O)N[C@@H](Cc1ccc(OP(=O)(O)O)cc1)C(=O)N[C@@H](CC(C)C)C(=O)N1CCC[C@H]1C(N)=O [Y(p)LP] (Ac-[pY]-Leu-Pro-NH2)
5,8 µM,CC(=O)N[C@@H](Cc1ccc(OP(=O)(O)O)cc1)C(=O)N[C@@H](CCC(N)=O)C(=O)N[C@@H](CCCCN)C(=O)N[C@@H](CCC(N)=O)C(=O)N[C@H](C(=O)N[C@@H](CCCN=C(N)N)C(N)=O)C(C)O (some centres undefined) [Y(p)QKQTR] (Ac-[pY]QKQ[Thr(3ξ)]R-NH2)
6,> 150 µM,CC(=O)N[C@@H](Cc1ccc(OP(=O)(O)O)cc1)C(=O)N[C@@H](CO)C(=O)N[C@@H](CC(=O)O)C(=O)NCC(=O)N[C@@H](CC(N)=O)C(=O)N[C@@H](Cc1ccccc1)C(N)=O [Y(p)SDGNF] (Ac-[pY]SDGNF-NH2)
